Assays:
[1] = test system: HBV viral load in AD38 cells; assay: Viral load production in AD38 cells, quantitative PCR of the core sequence in supernatant; format: cell-based; conditions: Hepatitis B virus, 144 h, 10 μM compound, 6 days at 37° C., supernatant qPCR, relative to DMSO control; read-out: AD38 Viral Load (%) (VL with cmpd/VL in DMSO control) at 10 μM
[2] = test system: AD38 cells; assay: Viability of AD38 cells (Promega CellTiter-Glo); format: cell-based; conditions: 10 μM compound, 6 days, CellTiter-Glo luminescence normalized to DMSO control (100%)
Procedure, shortened: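 After 6 days of compound exposure at 37° C (compound added as 10× solution in 10% DMSO; 50,000 cells/well, collagen-coated), medium was replaced with tetracycline-free DMEM/F12, 2% FBS, 1% DMSO. CellTiter-Glo luminescence was then recorded and normalized to DMSO-treated wells as 100% viability.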

SMILES | activity at 10 µM [1] | AD38 Viability Normalized Result (cmpd/DMSO %) at 10 μM [2]
COc1ncc(-c2ncc(CNC(=O)c3ccc4c(c3)NC(=O)c3ccccc3O4)s2)cn1 [1709-A, N-((2-(2-methoxypyrimidin-5-yl)thiazol-5-yl)methyl)-11-oxo-10, 11-dihydrodibenzo [b, f] [1, 4] oxazepine-8-carboxamide] | 29.5% | 106%
CN(C)c1ccc(-c2ncc(CNC(=O)c3ccc4c(c3)NC(=O)c3ccccc3S4(=O)=O)s2)cc1 [compound 1645] | 6.7% | 101%
O=C(NCc1cnc(-c2ccc(-n3cccn3)cc2)s1)c1ccc2c(c1)NC(=O)c1ccccc1S2(=O)=O [compound 1952, N-((2-(4-(1H-pyrazol-1-yl)phenyl)thiazol-5-yl)methyl)-11-oxo-10, 11-dihydrodibenzo [b, f] [1, 4] thiazepine-8-carboxamide 5,5-dioxide] | 0.8% | 106%
Cc1ncc(CNC(=O)c2ccc3c(c2C)NC(=O)c2ccccc2S3)s1 [compound 1535] | 0.8% | 84%
CCN(CC)CCCCc1cnn(-c2ncc(CNC(=O)c3ccc4c(c3)NC(=O)c3ccccc3S4(=O)=O)s2)c1 [compound 11100] | 6.8% | 102%
Cc1cc(-c2ncc(CNC(=O)c3ccc4c(c3)NC(=O)c3ccccc3S4(=O)=O)s2)ccc1O [compound 1804, N-((2-(4-hydroxy-3-methylphenyl)thiazol-5-yl)methyl)-11-oxo-10, 11-dihydrodibenzo [b, f] [1, 4] thiazepine-8-carboxamide 5,5-dioxide] | 0.5% | 103%
Cc1c(C(=O)NCc2cnc(-c3ccc(C#N)cc3)s2)ccc2c1NC(=O)c1ccccc1O2 [compound 1942] | 3% | 106%
O=C(NCc1cnc(-c2ccc(O)cc2F)s1)c1ccc2c(c1)NC(=O)c1ccccc1S2(=O)=O [compound 1670] | 0.9% | 102%
O=C(NCc1cnc(-c2ccc(NC(=O)C3CC3)cc2)s1)c1ccc2c(c1)NC(=O)c1ccccc1S2(=O)=O [compound 1931] | 8.5% | 97%
O=C(NCc1cnc(-c2ccc3[nH]ncc3c2)s1)c1ccc2c(c1)NC(=O)c1ccccc1S2(=O)=O [compound 1805] | 0.6% | 97%
COc1ccc(-c2ncc(CNC(=O)c3ccc4c(c3)NC(=O)c3ccccc3O4)s2)cc1C [1736-A] | 14.1% | 97%
Cc1c(C(=O)NCc2cnc(-n3cc(F)cn3)s2)ccc2c1NC(=O)c1ccccc1S2(=O)=O [compound 11148] | 0.3% | 98%
CCN(CC)CCC(C)Oc1ccc(-c2ncc(CNC(=O)c3ccc4c(c3)NC(=O)c3ccccc3S4(=O)=O)s2)cc1 (centres unmarked) [compound 11101] | 1.9% | 85%
CCN(CC)CCCOc1ccc(-c2ncc(CNC(=O)c3ccc4c(c3)NC(=O)c3ccccc3S4(=O)=O)s2)cc1 [compound 11073] | 2.2% | 94%
CN(C)CCOc1ccc(-c2ncc(CNC(=O)c3ccc4c(c3)NC(=O)c3ccccc3S4(=O)=O)s2)cc1 [compound 1584] | 1.4% | 101%
C=CCN1c2ccc(C(=O)NCc3cnc(-c4ccc(C#N)cc4)s3)cc2NC(=O)c2ccccc21 [compound 1921] | 1.2% | 101%
CN(C)CCSc1ncc(CNC(=O)c2ccc3c(c2)NC(=O)c2ccccc2S3)s1 [compound 1604] | 0.9% | 82%
Cl.NCCNC(=O)c1ccc(-c2ncc(CNC(=O)c3ccc4c(c3)NC(=O)c3ccccc3S4(=O)=O)s2)cc1 [compound 11017, N-((2-(4-((2-aminoethyl)carbamoyl)phenyl)thiazol-5-yl)methyl)-11-oxo-10, 11-dihydrodibenzo [b, f] [1, 4] thiazepine-8-carboxamide 5,5-dioxide hydrochloride] | 21% | 86%
CN(C)CCSc1ncc(CNC(=O)c2ccc3c(c2)NC(=O)c2ccccc2O3)s1 [compound 1617] | 2.2% | 101%
COc1c(C)cc(-c2ncc(CNC(=O)c3ccc4c(c3)NC(=O)c3ccccc3O4)s2)cc1C [1738-A] | 1.8% | 104%

SMILES | activity at 10 µM [1] | AD38 Viability Normalized Result (cmpd/DMSO %) at 10 μM [2]
CC(C)(C)NCCCOc1ccc(-c2ncc(CNC(=O)c3ccc4c(c3)NC(=O)c3ccccc3S4(=O)=O)s2)cc1 [compound 1990, N-((2-(4-(3-(tert-butylamino)propoxy)phenyl)thiazol-5-yl)methyl)-11-oxo-10, 11-dihydrodibenzo [b, f] [1, 4] thiazepine-8-carboxamide 5,5-dioxide] | 4.1% | 98%
O=C(NCc1cnc(-c2ccc(C(=O)NC3CC3)cc2)s1)c1ccc2c(c1)NC(=O)c1ccccc1S2(=O)=O [compound 1949] | 2.9% | 99%
CC(C)(O)Cc1ccccc1-c1ncc(CNC(=O)c2ccc3c(c2)NC(=O)c2ccccc2S3(=O)=O)s1 [compound 1840] | 3.2% | 107%
O=C1Cc2cc(-c3ncc(CNC(=O)c4ccc5c(c4)NC(=O)c4ccccc4O5)s3)ccc2N1 [compound 1833] | 67.4% | 102%
CC(=O)NCCCSc1ccc(-c2ncc(CNC(=O)c3ccc4c(c3)NC(=O)c3ccccc3S4(=O)=O)s2)cc1 [compound 11067, N-((2-(4-((3-acetamidopropyl)thio)phenyl)thiazol-5-yl)methyl)-11-oxo-10, 11-dihydrodibenzo [b, f] [1, 4] thiazepine-8-carboxamide 5,5-dioxide] | 2.5% | 99%
O=C(NCc1cnc(-n2cc(C(F)(F)F)cn2)s1)c1ccc2c(c1)NC(=O)c1ccccc1S2(=O)=O [compound 11039] | 1.9% | 92%
O=C1Nc2c(cc(F)c(C(=O)NCc3cnc(-c4ccc(O)cc4)s3)c2F)Sc2ccccc21 [compound 1750] | 1.1% | 107%
O=C(NCc1cnc(-c2ccc(F)cc2)s1)c1ccc2c(c1)NC(=O)c1ccccc1O2 [compound 1561] | 10.3% | 96%
O=C1CCN(c2ncc(CNC(=O)c3ccc4c(c3)NC(=O)c3ccccc3S4(=O)=O)s2)CC1 [compound 1906] | 7.8% | 89%
CC(C)c1ncc(CNC(=O)c2ccc3c(c2)NC(=O)c2ccccc2S3(=O)=O)s1 [compound 1552] | 0.4% | 102%
COc1ccc(-c2ncc(CNC(=O)c3ccc4c(c3)NC(=O)c3ccccc3S4)s2)cc1 [compound 1606] | 3% | 91%
Nc1ccc(-c2ncc(CNC(=O)c3ccc4c(c3)NC(=O)c3ccccc3S4(=O)=O)s2)nc1 [compound 1886, N-((2-(5-aminopyridin-2-yl)thiazol-5-yl)methyl)-11-oxo-10, 11-dihydrodibenzo [b, f] [1, 4] thiazepine-8-carboxamide 5,5-dioxide] | 1.5% | 106%
CN(C)CC1(COc2ccc(-c3ncc(CNC(=O)c4ccc5c(c4)NC(=O)c4ccccc4S5(=O)=O)s3)cc2)CC1 [compound 11112] | 4% | 100%
Cc1ncc(CNC(=O)c2ccc3c(c2)NC(=O)c2ccccc2O3)s1 [compound 1557] | 0.6% | 98%
O=C(NCc1cnc(-c2ccc3cnccc3c2)s1)c1ccc2c(c1)NC(=O)c1ccccc1O2 [compound 1832] | 14.1% | 98%
O=C(NCc1cnc(-c2ccc(S(=O)(=O)CCCO)cc2)s1)c1ccc2c(c1)NC(=O)c1ccccc1S2(=O)=O [11063-B, N-((2-(4-((3-hydroxypropyl)sulfonyl)phenyl)thiazol-5-yl)methyl)-11-oxo-10, 11-dihydrodibenzo [b, f] [1, 4] thiazepine-8-carboxamide 5,5-dioxide] | 5.4% | 95%
O=C(NCc1cnc(N2CCCCC(O)C2)s1)c1ccc2c(c1)NC(=O)c1ccccc1S2(=O)=O (centres unmarked) [compound 1908] | 7% | 94%
Cc1c(C(=O)NCc2cnc(-c3cc[nH]n3)s2)ccc2c1NC(=O)c1ccccc1S2(=O)=O [compound 11152] | 1.6% | 96%
O=C1Nc2c(ccc(C(=O)NCc3cnc(C(F)(F)F)s3)c2Cl)S(=O)(=O)c2ccccc21 [compound 11082] | 1.2% | 95%
NC(=O)c1ccc(-c2ncc(CNC(=O)c3ccc4c(c3)NC(=O)c3ccccc3S4(=O)=O)s2)c(F)c1 [compound 1970, N-((2-(4-carbamoyl-2-fluorophenyl)thiazol-5-yl)methyl)-11-oxo-10, 11-dihydrodibenzo [b, f] [1, 4] thiazepine-8-carboxamide 5,5-dioxide] | 1.5% | 121%
